Measurements: the CheMixHub ionic liquid set

Assay: xn = mol fraction of the nth substance listed

CCCCCCCCCCCC[P+](CC)(CC)CC.N#Cc1ccc[n-]1 + OCC(O)CO
100 kPa
Settings	electrical conductivity, 293.15 K [S/m]	electrical conductivity, 303.15 K [S/m]	electrical conductivity, 313.15 K [S/m]	viscosity, 293.15 K [mPa·s]	viscosity, 298.15 K [mPa·s]	viscosity, 303.15 K [mPa·s]	viscosity, 313.15 K [mPa·s]
x1 = 0.001	0.0008	0.0015	0.0028	–	–	–	–
x1 = 0.003	0.0025	0.0035	0.0061	1352	860	540	214
x1 = 0.005	0.0037	0.0051	0.0091	–	–	–	–
x1 = 0.007	0.0052	0.0065	0.0116	–	–	–	–
x1 = 0.01	0.0064	0.0076	0.0137	1415	910	573	230
x1 = 0.013	0.0076	0.0105	0.0192	–	–	–	–
x1 = 0.016	0.0081	0.0125	0.0233	–	–	–	–
x1 = 0.021	0.0086	0.0154	0.0287	–	–	–	–
x1 = 0.026	0.0096	0.0166	0.0312	1652	1024	620	254
x1 = 0.032	0.0102	0.0186	0.0342	–	–	–	–
x1 = 0.041	0.0111	0.0201	0.0368	2113	1316	790	321
x1 = 0.049	0.0122	0.0233	0.0429	–	–	–	–
x1 = 0.056	0.0129	0.0252	0.0463	2377	1481	910	364
x1 = 0.094	0.014	0.0256	0.0475	–	–	–	–
x1 = 0.139	0.012	0.0279	0.0522	2442	1568	1018	442
x1 = 0.196	–	–	–	2342	1501	960	423
x1 = 0.292	0.0092	0.0261	0.0495	1719	1114	730	336
x1 = 0.343	0.0092	0.0203	0.0398	1481	970	658	307
x1 = 0.426	–	–	–	1086	710	473	230
x1 = 0.481	0.0109	0.0206	0.0404	–	–	–	–
x1 = 0.542	–	–	–	940	638	443	231
x1 = 0.677	0.0131	0.0239	0.0453	860	600	425	214
x1 = 0.815	0.0183	0.0357	0.0635	623	441	321	164
x1 = 1	0.0267	0.0448	0.0786	422	296	212	117

CC(=O)[O-].CC[n+]1ccn(C)c1 + CCO + O
viscosity [mPa·s], 101 kPa
Settings	298.15 K	313.15 K	328.15 K	343.15 K
x2 = 0.1044, x3 = 0.8465	3.75	2.34	1.6	1.15
x2 = 0.1179, x3 = 0.7408	9.38	5.57	3.58	2.49
x2 = 0.2002, x3 = 0.3044	31.9	18.16	11.45	7.86
x2 = 0.2242, x3 = 0.3101	28	16.28	10.41	7.22
x2 = 0.2489, x3 = 0.6021	8.23	5.06	–	–
x2 = 0.2635, x3 = 0.6879	3.8	2.41	1.64	1.19
x2 = 0.2995, x3 = 0.4047	14.14	8.83	5.91	4.2
x2 = 0.4124, x3 = 0.1068	20.57	12.7	8.57	6.09
x2 = 0.463, x3 = 0.2523	10.07	6.66	–	–
x2 = 0.4916, x3 = 0.4053	4.47	2.99	–	–
x2 = 0.5914, x3 = 0.1068	8.43	–	–	–
x2 = 0.7052, x3 = 0.1967	3.19	–	–	–

NCC(=O)O + CCCCCCCCCCCCCCCC[n+]1ccccc1.[Cl-] + O
308.15 K, 101 kPa
Settings	electrical conductivity [S/m]
x1 = 2.018e-05, x2 = 0	6.2e-05
x1 = 0.0002, x2 = 0	0.000171
x1 = 0.0003639, x2 = 0	0.000413
x1 = 0.0009182, x2 = 0	0.00011
x1 = 0.001802, x2 = 0	0.000292
